The source of these data is patent US11718637B2, “Prodrugs of 4′-C-substituted-2-halo-2′- deoxyadenosine nucleosides and methods of making and using the same” (Gilead Sciences, Inc., priority 2020, dated 2023).

In one data set the test system is HIV-1 (IIIB). In words: Antiviral assay in MT-4 cells. The format is cell-based. Here is the method: (§1) Compounds were tested in a high-throughput 384-well assay format for their ability to inhibit the replication of HIV-1 (IIIB) in MT-4 cells. Compounds were serially diluted (1:3) in DMSO on 384-well polypropylene plates and further diluted 200-fold into complete RPMI media (10% FBS, 1% P/S) using the Biotek Micro Flow and Labcyte ECHO acoustic dispenser. Each plate contained up to 8 test compounds, with negative (No Drug Control) and 5 μM AZT positive controls. MT-4 cells were pre-infected with 10 μL of either RPMI (mock-infected) or a fresh 1:250 dilution of HIV-1 IIIB concentrated virus stock. Infected and uninfected MT-4 cells were further diluted in complete RPMI media and added to each plate using a Micro Flow dispenser. After 5 days incubation in a humidified and temperature-controlled incubator (37° C.), Cell Titer Glo (Promega) was added to the assay plates and chemiluminescence read using an Envision plate-reader. EC50 values were defined as the compound concentration that causes a 50% decrease in luminescence signal, and were calculated using a sigmoidal dose-response model to generate curve fits.

Data set [1] can be described thus: Kinetic solubility analysis (CLND). The format is physicochemical. The following applies: 24.2 °C, kinetic from dmso stock, from DMSO stocks, 1.0% DMSO, 24-hour incubation at ambient temperature, medium (0.1N HCl or PBS 7.4) not stated. Here is the method: Kinetic Solubility Analysis (CLND)
0.1N HCl: Hydrochloric acid, 0.1N standardized solution.
1×PBS, 7.4: Phosphate Buffered Saline solution 10×, PBS 50 mL was added to approximately 450 mL HPLC grade H2O. The volume of the solution was then adjusted to 500 mL for a total dilution factor of 1:10 and a final PBS concentration of 1×. The pH of the final solution was measured and found to be 7.4.
Kinetic Solubility from DMSO Stocks: 100-fold dilutions of each DMSO stock solution were prepared in singleton by combining 3 μL of DMSO stock with 297 μL of the appropriate media in a Millipore solubility filter plate with a […] polycarbonate filter membrane using Hamilton Starlet liquid handling. The final DMSO concentration is 1.0% and maximum theoretical compound concentration is 100 μM (assuming stock concentration of 10 mM). The filter plate was sealed. Following 24-hour incubation at ambient temperature (24.2-27.5° C.), the samples were vacuum filtered and the filtrates were collected in a 96 well polypropylene plate for analysis. The collection plate was sealed for analysis.
Filtrates were injected into the nitrogen detector for quantification. The results are reported here in μM.
Calculation of Results: The equimolar nitrogen response of the detector was calibrated using standards which spanned the dynamic range of the instrument from […] nitrogen. The filtrates were quantified with respect to this calibration curve. The calculated solubility values were corrected for background nitrogen present in the DMSO and the media used to prepare the samples. All reported values for compounds containing adjacent nitrogen atoms in a ring structure should be increased by ˜25%. […] The solubility results presented assume that the samples were free of nitrogen containing impurities and were stable under the assay conditions.

The nature of data set [2]: Cytotoxicity assay in MT-4 cells. The following applies: human; uninfected MT-4 cells, 5 days incubation, Cell Titer Glo. The format is cell-based. Here is the method: as §1, with “fits. Assays were performed as above except uninfected MT-4 cells were added to each well containing test compound. In addition, 10 μM puromycin was added to the last column of each assay plate to assess a base level of cytotoxicity.” for “fits.”
Background: ATP-based viability assays read luminescence as a measure of living cells.

Where [3] appears, read: Human immunodeficiency virus 1, MT4, 120 h, HIV-1 IIIB replication in MT-4 cells, 5 days incubation, Cell Titer Glo, read-out: EC50.

≈ marks a conversion by molar mass, not a printed value. Where two headings read alike, the source gives them in different places.

As usually defined, the EC50 is the midpoint of the concentration-response curve. In the data set on HIV-1 (IIIB) (Human immunodeficiency virus 1, IIIB, MT4, 120 h), `C#C[C@]1(CO[P@@](=O)(N[C@@H](C)C(=O)OCC(CC)CC)Oc2ccccc2)O[C@@H](n2cnc3c(N)nc(F)nc32)C[C@@H]1O` (single isomer, unassigned) [Compound 4] displayed an EC50 of 8 nM.

Usually kinetic solubility stands for the concentration staying in solution when a stock, usually in DMSO, is diluted into the medium. What is called CC50 is the concentration at which the toxic effect on the cells reaches its halfway point. As for `C#C[C@]1(COC(=O)C(C)C)O[C@@H](n2cnc3c(N)nc(F)nc32)C[C@@H]1OC(=O)C(C)C` [Compound 1, (2R,3S,5R)-5-(6-amino-2-fluoro-9H-purin-9-yl)-2-ethynyl-2-((isobutyryloxy)methyl)tetrahydrofuran-3-yl isobutyrate], in data set [1], the solubility (kinetic) at 24 h was 6.6 µM (≈ 2.86 µg/mL). For the same compound, the EC50 in the data set with HIV-1 (IIIB) (setting [3]) was 7 nM. In data set [2], this compound had a CC50 at 5 days of 37300 nM.

On to `C#C[C@]1(CO)O[C@@H](n2cnc3c(NC(=O)OCCCCCCCCCCCCCC)nc(F)nc32)C[C@@H]1O` [Compound 2, Tetradecyl (9-((2R,4S,5R)-5-ethynyl-4-hydroxy-5-(hydroxymethyl)tetrahydrofuran-2-yl)-2-fluoro-9H-purin-6-yl)carbamate], for which the solubility (kinetic) at 24 h in data set [1] turned out to be 1.2 µM (≈ 0.64 µg/mL). Besides, the EC50 in the data set on HIV-1 (IIIB) (setting [3]) was 70 nM. Moreover, the CC50 at 5 days in data set [2] came to 13400 nM.

Regarding `C#C[C@]1(CO)O[C@@H](n2cnc3c(NC(=O)OCCCCCCCCCCCCCCCC)nc(F)nc32)C[C@@H]1O` [Compound 3, Hexadecyl (9-((2R,4S,5R)-5-ethynyl-4-hydroxy-5-(hydroxymethyl)tetrahydrofuran-2-yl)-2-fluoro-9H-purin-6-yl)carbamate], the EC50 in the data set with HIV-1 (IIIB) (setting [3]) came to 60 nM. The same compound displayed a CC50 at 5 days in data set [2] of 11800 nM.

As for `C#C[C@]1(COC(=O)c2ccccc2COC(=O)CCCCCCCCCCCCCCC)O[C@@H](n2cnc3c(N)nc(F)nc32)C[C@@H]1O` [Compound 5], the kinetic solubility at 24 h in data set [1] was < 1 µM. For the same compound, the EC50 with HIV-1 (IIIB) (setting [3]) came out at 8 nM. Besides, the CC50 at 5 days in data set [2] is > 50000 nM.

Turning to `C#C[C@]1(CO)O[C@@H](n2cnc3c(N)nc(F)nc32)C[C@@H]1OC(=O)c1ccccc1COC(=O)CCCCCCCCCCCCCCC` [Compound 6, (2R,3S,5R)-5-(6-amino-2-fluoro-4,5-dihydro-9H-purin-9-yl)-2-ethynyl-2-(hydroxymethyl)tetrahydrofuran-3-yl 2-((palmitoyloxy)methyl)benzoate], in data set [1], the solubility (kinetic) at 24 h was < 1 µM. Further, the EC50 in the data set with HIV-1 (IIIB) (setting [3]) was 29 nM. In data set [2], the CC50 at 5 days was > 50000 nM.

Regarding `C#C[C@]1(COC(=O)c2ccccc2COC(=O)CCCCCCCCCCCCCCC)O[C@@H](n2cnc3c(N)nc(F)nc32)C[C@@H]1OC(=O)c1ccccc1COC(=O)CCCCCCCCCCCCCCC` [Compound 7, (2R,3S,5R)-5-(6-amino-2-fluoro-9H-purin-9-yl)-2-ethynyl-2-(((2-((palmitoyloxy)methyl)benzoyl)oxy)methyl)tetrahydrofuran-3-yl 2-((palmitoyloxy)methyl)benzoate], the kinetic solubility at 24 h in data set [1] was determined as 2 µM (≈ 2.08 µg/mL). The EC50 with HIV-1 (IIIB) (setting [3]) was > 500 nM. For the same compound, the CC50 at 5 days in data set [2] was > 50000 nM.

Regarding `C#C[C@]1(COC(=O)CCCCCCCCCCCCC)O[C@@H](n2cnc3c(N)nc(F)nc32)C[C@@H]1O` [Compound 8, ((2R,3S,5R)-5-(6-amino-2-fluoro-9H-purin-9-yl)-2-ethynyl-3-hydroxytetrahydrofuran-2-yl)methyl tetradecanoate], in data set [1], the kinetic solubility at 24 h is < 1 µM. The EC50 in the data set on HIV-1 (IIIB) (setting [3]) worked out at 3 nM. Besides, the cytotoxic concentration (CC50) at 5 days in data set [2] was > 20200 nM.

Consider `C#C[C@]1(CO)O[C@@H](n2cnc3c(N)nc(F)nc32)C[C@@H]1OC(=O)CCCCCCCCCCCCC` [Compound 9, (2R,3S,5R)-5-(6-amino-2-fluoro-9H-purin-9-yl)-2-ethynyl-2-(hydroxymethyl)tetrahydrofuran-3-yl tetradecanoate], for which the kinetic solubility at 24 h in data set [1] was < 1 µM. Moreover, the EC50 in the data set on HIV-1 (IIIB) (setting [3]) is 4 nM. For the same compound, the CC50 at 5 days in data set [2] was > 23000 nM.

On to `C#C[C@]1(COC(=O)CCCCCCCCCCCCC)O[C@@H](n2cnc3c(N)nc(F)nc32)C[C@@H]1OC(=O)CCCCCCCCCCCCC` [Compound 10, (2R,3S,5R)-5-(6-amino-2-fluoro-9H-purin-9-yl)-2-ethynyl-2-((tetradecanoyloxy)methyl)tetrahydrofuran-3-yl tetradecanoate], for which, in data set [1], the kinetic solubility at 24 h was < 1 µM. Besides, the EC50 in the data set on HIV-1 (IIIB) (setting [3]) is > 500 nM. Moreover, the CC50 at 5 days in data set [2] was > 50000 nM.

As to `C#C[C@]1(COC(=O)CCCCCCCCCCCCCCCCC)O[C@@H](n2cnc3c(N)nc(F)nc32)C[C@@H]1O` [Compound 11, ((2R,3S,5R)-5-(6-amino-2-fluoro-9H-purin-9-yl)-2-ethynyl-3-hydroxytetrahydrofuran-2-yl)methyl stearate], the kinetic solubility at 24 h in data set [1] was < 1 µM. Also, the EC50 in the data set with HIV-1 (IIIB) (setting [3]) was determined as 7 nM. Also, the CC50 at 5 days in data set [2] is > 41500 nM.

As to `C#C[C@]1(COC(=O)OCCCCCCCCCCCC)O[C@@H](n2cnc3c(N)nc(F)nc32)C[C@@H]1O` [Compound 12, ((2R,3S,5R)-5-(6-amino-2-fluoro-9H-purin-9-yl)-2-ethynyl-3-hydroxytetrahydrofuran-2-yl)methyl dodecyl carbonate], the solubility (kinetic) at 24 h in data set [1] is < 1 µM. The concentration for a half-maximal effect (EC50) in the data set on HIV-1 (IIIB) (setting [3]) stood at 6 nM. Further, the CC50 at 5 days in data set [2] was 17000 nM.

Take `C#C[C@]1(COC(=O)OCCCCCCCCCCCC)O[C@@H](n2cnc3c(N)nc(F)nc32)C[C@@H]1OC(=O)OCCCCCCCCCCCC` [Compound 13, ((2R,3S,5R)-5-(6-amino-2-fluoro-9H-purin-9-yl)-3-(((dodecyloxy)carbonyl)oxy)-2-ethynyltetrahydrofuran-2-yl)methyl dodecyl carbonate]: the kinetic solubility at 24 h in data set [1] is < 1 µM. Also, the EC50 with HIV-1 (IIIB) (setting [3]) was > 500 nM. Moreover, it took 5500 nM to reach half-maximal cytotoxicity in data set [2] (CC50 at 5 days).

Compound `C#C[C@]1(COC(=O)CC(C)(C)c2c(C)cc(C)cc2OC(C)=O)O[C@@H](n2cnc3c(N)nc(F)nc32)C[C@@H]1O` [Compound 14, ((2R,3S,5R)-5-(6-amino-2-fluoro-9H-purin-9-yl)-2-ethynyl-3-hydroxytetrahydrofuran-2-yl)methyl 3-(2-acetoxy-4,6-dimethylphenyl)-3-methylbutanoate] had a solubility (kinetic) at 24 h in data set [1] of 37 µM (≈ 20 µg/mL). In addition, the EC50 with HIV-1 (IIIB) (setting [3]) amounted to 4 nM. Also, in data set [2], the CC50 at 5 days is > 21600 nM.

Consider `C#C[C@]1(CO)O[C@@H](n2cnc3c(N)nc(F)nc32)C[C@@H]1OC(=O)CC(C)(C)c1c(C)cc(C)cc1OC(C)=O` [Compound 15, (2R,3S,5R)-5-(6-amino-2-fluoro-9H-purin-9-yl)-2-ethynyl-2-(hydroxymethyl)tetrahydrofuran-3-yl 3-(2-acetoxy-4,6-dimethylphenyl)-3-methylbutanoate], for which the kinetic solubility at 24 h in data set [1] is 25.1 µM (≈ 13.5 µg/mL). The EC50 in the data set with HIV-1 (IIIB) (setting [3]) amounted to 3 nM. The compound further came in with a CC50 at 5 days in data set [2] of 11800 nM.

Take `C#C[C@]1(COC(=O)CC(C)(C)c2c(C)cc(C)cc2OC(C)=O)O[C@@H](n2cnc3c(N)nc(F)nc32)C[C@@H]1OC(=O)CC(C)(C)c1c(C)cc(C)cc1OC(C)=O` [Compound 16, ((2R,3S,5R)-3-((3-(2-acetoxy-4,6-dimethylphenyl)-3-methylbutanoyl)oxy)-5-(6-amino-2-fluoro-9H-purin-9-yl)-2-ethynyltetrahydrofuran-2-yl)methyl 3-(2-acetoxy-4,6-dimethylphenyl)-3-methylbutanoate]: the solubility (kinetic) at 24 h in data set [1] is < 1 µM. In addition, in the data set on HIV-1 (IIIB) (setting [3]), the EC50 came to 10 nM. In data set [2], the midpoint of cytotoxicity, the CC50 at 5 days, lay at 15700 nM.
